Assays:
Format in all cases: biochemical
MELK(h) = MELK(h) (Homo sapiens (Human), UniProt Q14680); test: KinaseProfiler panel; parameters: dose or concentration left out as unconfirmed; conditions: activity remaining
PAR-1Bα(h) = PAR-1Bα(h) (Homo sapiens (Human), UniProt Q7KZI7); test: KinaseProfiler panel; parameters: dose or concentration left out as unconfirmed; conditions: activity remaining
PDHK2(h) = PDHK2(h) (Homo sapiens (Human), UniProt Q15119); test: KinaseProfiler panel; parameters: dose or concentration left out as unconfirmed; conditions: activity remaining
PKAα = PKAα (Homo sapiens (Human), UniProt P17612); test: KinaseProfiler radiometric assay (14-440KP); conditions: mean of at least two independent experiments
Text: (§1) In another aspect, disclosed is a method of inhibiting citron kinase in a sample, comprising contacting the sample with a compound described herein (e.g., a compound of formula (I) or a pharmaceutically acceptable salt thereof), or a pharmaceutical composition described herein (e.g., a pharmaceutical composition comprising a compound of formula (I) or a pharmaceutically acceptable salt thereof), in an amount effective to inhibit citron kinase. In some embodiments, the step of contacting the sample with the compound comprises administering the compound to a subject (e.g., a subject) suffering from cancer. Methods of determining kinase inhibition are well known in the art. For example, kinase activity of an enzyme and the inhibitory capacity of a test compound can be determined by measuring enzyme specific phosphorylation of a substrate. Commercial assays and kits can be employed. For example, kinase inhibition can be determined using a radiometric binding assay, such as using KinaseProfiler™ technology (Eurofins Discovery). This assay method directly detects product formation without the use of modified substrates or coupling enzymes. Test compounds are incubated with kinase, substrate, required cofactors and radioisotope labeled ATP. Following incubation, unreacted radioactive ATP is removed by washing and incorporation of the radiolabeled phosphate into the kinase substrate is assayed to detect phosphoryltransferase activity, which is directly proportional to the amount of phosphorylated substrate. Inhibition of the kinase by a kinase inhibitor prevents phosphorylation of the substrate and thereby limits the incorporation of radiolabeled phosphate. Such an assay is compatible with a microwell assay format, allowing simultaneous determination of IC50 of multiple compounds.
(§2) The effect of various compounds on the inhibition of other kinases has also been determined. Table 2 reports measured IC50 values; value units are nanomolar inhibition.

CDK13/cyclinK(h) = CDK13/cyclinK(h) (Homo sapiens (Human), UniProt Q14004); test: KinaseProfiler panel; parameters: dose or concentration left out as unconfirmed; conditions: activity remaining
SGK(h) = SGK(h) (Homo sapiens (Human), UniProt O00141); test: KinaseProfiler panel; parameters: dose or concentration left out as unconfirmed; conditions: activity remaining
RIPK2(h) = RIPK2(h) (Homo sapiens (Human), UniProt O43353); test: KinaseProfiler panel; parameters: dose or concentration left out as unconfirmed; conditions: activity remaining
Wee1(h) = Wee1(h) (Homo sapiens (Human), UniProt P30291); test: KinaseProfiler panel; parameters: dose or concentration left out as unconfirmed; conditions: activity remaining
VRK1(h) = VRK1(h) (Homo sapiens (Human), UniProt Q99986); test: KinaseProfiler panel; parameters: dose or concentration left out as unconfirmed; conditions: activity remaining
IGF-1R(h) = IGF-1R(h) (Homo sapiens (Human), UniProt P08069); test: KinaseProfiler panel; parameters: dose or concentration left out as unconfirmed; conditions: activity remaining
NEK1(h) = NEK1(h) (Homo sapiens (Human), UniProt Q96PY6); test: KinaseProfiler panel; parameters: dose or concentration left out as unconfirmed; conditions: activity remaining
Lck(h) = Lck(h) (Homo sapiens (Human), UniProt P06239); test: KinaseProfiler panel; parameters: dose or concentration left out as unconfirmed; conditions: activity remaining
NIM1(h) = NIM1(h) (Homo sapiens (Human), UniProt Q8IY84); test: KinaseProfiler panel; parameters: dose or concentration left out as unconfirmed; conditions: activity remaining
MAPK1(h) = MAPK1(h) (Homo sapiens (Human), UniProt P27361); test: KinaseProfiler panel; parameters: dose or concentration left out as unconfirmed; conditions: activity remaining
NEK3(h) = NEK3(h) (Homo sapiens (Human), UniProt P51956); test: KinaseProfiler panel; parameters: dose or concentration left out as unconfirmed; conditions: activity remaining
PI3KC2g(h) = PI3KC2g(h) (Homo sapiens (Human), UniProt O75747); test: KinaseProfiler panel; conditions: activity remaining
MST1(h) = MST1(h) (Homo sapiens (Human), UniProt Q13043); test: KinaseProfiler panel; parameters: dose or concentration left out as unconfirmed; conditions: activity remaining
IKKα(h) = IKKα(h) (Homo sapiens (Human), UniProt O15111); test: KinaseProfiler panel; parameters: dose or concentration left out as unconfirmed; conditions: activity remaining
ROCK-2 = ROCK-2 (Homo sapiens (Human), UniProt O75116); test: KinaseProfiler radiometric assay (14-451KP); conditions: mean of at least two independent experiments
Text: as §1, §2

SAPK3(h) = SAPK3(h) (Homo sapiens (Human), UniProt P53778); test: KinaseProfiler panel; parameters: dose or concentration left out as unconfirmed; conditions: activity remaining
TTBK1(h) = TTBK1(h) (Homo sapiens (Human), UniProt Q5TCY1); test: KinaseProfiler panel; parameters: dose or concentration left out as unconfirmed; conditions: activity remaining
PKCδ(h) = PKCδ(h) (Homo sapiens (Human), UniProt Q05655); test: KinaseProfiler panel; parameters: dose or concentration left out as unconfirmed; conditions: activity remaining
FGFR2(h) = FGFR2(h) (Homo sapiens (Human), UniProt P21802); test: KinaseProfiler panel; parameters: dose or concentration left out as unconfirmed; conditions: activity remaining
LATS1(h) = LATS1(h) (Homo sapiens (Human), UniProt O95835); test: KinaseProfiler panel; parameters: dose or concentration left out as unconfirmed; conditions: activity remaining
PKCγ(h) = PKCγ(h) (Homo sapiens (Human), UniProt P05129); test: KinaseProfiler panel; parameters: dose or concentration left out as unconfirmed; conditions: activity remaining
CaMKI(h) = CaMKI(h) (Homo sapiens (Human), UniProt Q14012); test: KinaseProfiler panel; parameters: dose or concentration left out as unconfirmed; conditions: activity remaining

Sequence of Lck(h) (P06239 whole entry): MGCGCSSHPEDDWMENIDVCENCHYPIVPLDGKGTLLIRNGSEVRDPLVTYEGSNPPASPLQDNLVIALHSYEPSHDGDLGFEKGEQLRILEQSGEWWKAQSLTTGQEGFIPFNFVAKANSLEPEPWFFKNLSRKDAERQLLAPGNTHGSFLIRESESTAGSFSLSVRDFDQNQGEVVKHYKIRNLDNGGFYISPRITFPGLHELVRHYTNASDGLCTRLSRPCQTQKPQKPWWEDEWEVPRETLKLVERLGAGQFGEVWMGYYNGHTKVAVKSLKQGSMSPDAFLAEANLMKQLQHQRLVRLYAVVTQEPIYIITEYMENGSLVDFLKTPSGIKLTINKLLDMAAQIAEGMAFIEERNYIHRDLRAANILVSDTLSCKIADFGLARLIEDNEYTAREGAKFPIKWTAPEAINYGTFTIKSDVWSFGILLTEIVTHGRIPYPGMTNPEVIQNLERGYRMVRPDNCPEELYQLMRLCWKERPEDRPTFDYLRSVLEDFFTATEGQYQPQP
Sequence of VRK1(h) (Q99986 whole entry): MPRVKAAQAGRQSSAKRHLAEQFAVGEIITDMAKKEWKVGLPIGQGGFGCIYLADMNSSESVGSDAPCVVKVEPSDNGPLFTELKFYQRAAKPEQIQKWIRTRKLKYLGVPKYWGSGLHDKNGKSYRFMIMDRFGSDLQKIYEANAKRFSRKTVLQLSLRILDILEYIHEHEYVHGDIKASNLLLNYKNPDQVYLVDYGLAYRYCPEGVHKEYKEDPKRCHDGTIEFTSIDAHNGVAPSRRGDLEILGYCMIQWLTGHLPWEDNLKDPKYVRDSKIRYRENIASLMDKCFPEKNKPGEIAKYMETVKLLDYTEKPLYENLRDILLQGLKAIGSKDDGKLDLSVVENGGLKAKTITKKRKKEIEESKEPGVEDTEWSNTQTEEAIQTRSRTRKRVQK
Sequence of RIPK2(h) (O43353 whole entry): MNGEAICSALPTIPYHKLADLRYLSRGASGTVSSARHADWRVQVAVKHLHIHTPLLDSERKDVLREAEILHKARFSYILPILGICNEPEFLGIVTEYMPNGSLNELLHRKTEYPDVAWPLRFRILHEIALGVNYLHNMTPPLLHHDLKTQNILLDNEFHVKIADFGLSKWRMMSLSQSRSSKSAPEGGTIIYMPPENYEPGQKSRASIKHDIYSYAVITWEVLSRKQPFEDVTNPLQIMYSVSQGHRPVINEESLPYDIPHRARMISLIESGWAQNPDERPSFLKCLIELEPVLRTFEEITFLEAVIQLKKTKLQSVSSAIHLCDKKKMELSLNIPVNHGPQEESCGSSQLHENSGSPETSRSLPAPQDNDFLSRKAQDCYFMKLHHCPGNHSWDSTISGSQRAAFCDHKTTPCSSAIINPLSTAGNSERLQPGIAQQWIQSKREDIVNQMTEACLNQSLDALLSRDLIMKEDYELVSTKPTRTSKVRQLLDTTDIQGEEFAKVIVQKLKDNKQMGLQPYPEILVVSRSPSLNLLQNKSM
Sequence of NEK1(h) (Q96PY6 whole entry): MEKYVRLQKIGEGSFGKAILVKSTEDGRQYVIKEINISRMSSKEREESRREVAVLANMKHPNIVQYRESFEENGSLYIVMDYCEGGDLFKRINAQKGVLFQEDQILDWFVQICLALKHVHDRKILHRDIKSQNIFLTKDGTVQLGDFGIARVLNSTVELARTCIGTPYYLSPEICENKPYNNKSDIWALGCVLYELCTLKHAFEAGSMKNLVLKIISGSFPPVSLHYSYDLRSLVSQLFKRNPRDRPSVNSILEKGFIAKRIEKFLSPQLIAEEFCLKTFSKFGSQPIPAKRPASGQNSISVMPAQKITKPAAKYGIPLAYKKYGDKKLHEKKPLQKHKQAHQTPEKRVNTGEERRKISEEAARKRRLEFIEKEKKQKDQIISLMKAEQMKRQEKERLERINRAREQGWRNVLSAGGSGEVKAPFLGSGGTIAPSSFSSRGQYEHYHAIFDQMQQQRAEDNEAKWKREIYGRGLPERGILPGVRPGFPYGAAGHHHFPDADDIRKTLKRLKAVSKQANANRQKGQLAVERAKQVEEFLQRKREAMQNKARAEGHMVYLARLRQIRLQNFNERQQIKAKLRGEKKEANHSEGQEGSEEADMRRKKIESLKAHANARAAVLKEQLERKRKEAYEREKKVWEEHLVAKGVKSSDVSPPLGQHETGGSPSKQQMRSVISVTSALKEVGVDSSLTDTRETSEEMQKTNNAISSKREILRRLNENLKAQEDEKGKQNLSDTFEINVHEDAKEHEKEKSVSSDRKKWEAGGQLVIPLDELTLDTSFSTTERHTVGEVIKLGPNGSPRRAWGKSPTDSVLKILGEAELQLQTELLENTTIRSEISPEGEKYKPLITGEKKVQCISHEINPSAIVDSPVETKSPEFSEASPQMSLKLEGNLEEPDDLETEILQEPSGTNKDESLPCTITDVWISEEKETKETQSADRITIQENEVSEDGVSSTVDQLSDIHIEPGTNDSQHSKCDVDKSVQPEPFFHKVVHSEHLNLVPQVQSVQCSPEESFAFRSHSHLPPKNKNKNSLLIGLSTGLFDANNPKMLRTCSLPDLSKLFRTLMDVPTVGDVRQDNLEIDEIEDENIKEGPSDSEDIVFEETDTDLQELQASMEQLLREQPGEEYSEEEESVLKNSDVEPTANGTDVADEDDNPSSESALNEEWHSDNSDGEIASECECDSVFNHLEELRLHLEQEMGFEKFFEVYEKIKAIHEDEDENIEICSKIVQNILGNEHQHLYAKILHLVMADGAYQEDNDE
Sequence of NEK3(h) (P51956 whole entry): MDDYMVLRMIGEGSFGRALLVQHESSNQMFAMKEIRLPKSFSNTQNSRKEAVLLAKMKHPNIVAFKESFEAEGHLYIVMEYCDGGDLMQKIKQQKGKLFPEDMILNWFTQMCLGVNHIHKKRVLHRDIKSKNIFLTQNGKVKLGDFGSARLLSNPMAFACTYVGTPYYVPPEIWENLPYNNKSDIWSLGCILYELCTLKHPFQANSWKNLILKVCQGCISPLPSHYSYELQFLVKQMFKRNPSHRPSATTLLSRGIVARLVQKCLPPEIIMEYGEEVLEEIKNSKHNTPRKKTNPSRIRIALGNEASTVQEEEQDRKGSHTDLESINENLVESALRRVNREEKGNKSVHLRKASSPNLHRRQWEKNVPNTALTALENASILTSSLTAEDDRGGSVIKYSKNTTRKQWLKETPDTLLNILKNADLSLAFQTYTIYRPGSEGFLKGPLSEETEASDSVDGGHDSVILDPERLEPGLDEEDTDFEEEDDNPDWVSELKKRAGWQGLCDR
Sequence of ROCK-2 (O75116 whole entry): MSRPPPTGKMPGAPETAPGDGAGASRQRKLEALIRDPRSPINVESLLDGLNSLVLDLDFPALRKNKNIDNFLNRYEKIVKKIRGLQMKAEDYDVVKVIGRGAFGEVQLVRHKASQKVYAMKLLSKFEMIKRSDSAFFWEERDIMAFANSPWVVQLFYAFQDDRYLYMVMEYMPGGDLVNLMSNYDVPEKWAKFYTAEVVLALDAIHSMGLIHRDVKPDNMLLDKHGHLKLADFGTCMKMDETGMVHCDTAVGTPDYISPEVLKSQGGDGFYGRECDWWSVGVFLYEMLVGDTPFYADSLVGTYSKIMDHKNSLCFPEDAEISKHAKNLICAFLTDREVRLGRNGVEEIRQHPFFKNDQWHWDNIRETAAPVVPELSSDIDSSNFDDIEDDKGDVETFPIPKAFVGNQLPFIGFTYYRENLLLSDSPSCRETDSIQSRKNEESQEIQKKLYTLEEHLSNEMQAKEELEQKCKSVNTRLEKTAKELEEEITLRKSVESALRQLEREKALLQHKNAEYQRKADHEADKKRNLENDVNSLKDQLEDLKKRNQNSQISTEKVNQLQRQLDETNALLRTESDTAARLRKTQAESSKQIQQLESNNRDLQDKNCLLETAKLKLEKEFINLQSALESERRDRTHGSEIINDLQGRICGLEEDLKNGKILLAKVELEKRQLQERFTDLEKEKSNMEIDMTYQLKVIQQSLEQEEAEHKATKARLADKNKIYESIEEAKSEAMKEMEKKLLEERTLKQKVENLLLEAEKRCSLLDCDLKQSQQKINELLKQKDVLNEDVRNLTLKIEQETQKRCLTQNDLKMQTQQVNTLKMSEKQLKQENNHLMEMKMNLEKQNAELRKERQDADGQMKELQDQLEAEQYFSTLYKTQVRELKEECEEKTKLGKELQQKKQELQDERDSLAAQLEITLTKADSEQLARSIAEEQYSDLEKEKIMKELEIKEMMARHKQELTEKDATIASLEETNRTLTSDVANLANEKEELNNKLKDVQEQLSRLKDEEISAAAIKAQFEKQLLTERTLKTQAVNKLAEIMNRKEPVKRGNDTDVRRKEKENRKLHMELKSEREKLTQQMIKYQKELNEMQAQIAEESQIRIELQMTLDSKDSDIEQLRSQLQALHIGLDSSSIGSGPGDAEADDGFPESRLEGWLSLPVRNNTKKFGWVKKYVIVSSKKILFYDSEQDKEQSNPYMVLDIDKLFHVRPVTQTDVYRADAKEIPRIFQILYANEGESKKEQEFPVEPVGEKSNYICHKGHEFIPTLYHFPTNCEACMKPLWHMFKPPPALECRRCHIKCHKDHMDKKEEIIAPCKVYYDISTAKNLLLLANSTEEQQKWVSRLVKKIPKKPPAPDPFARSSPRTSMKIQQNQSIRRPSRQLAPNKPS
Sequence of SGK(h) (O00141 whole entry): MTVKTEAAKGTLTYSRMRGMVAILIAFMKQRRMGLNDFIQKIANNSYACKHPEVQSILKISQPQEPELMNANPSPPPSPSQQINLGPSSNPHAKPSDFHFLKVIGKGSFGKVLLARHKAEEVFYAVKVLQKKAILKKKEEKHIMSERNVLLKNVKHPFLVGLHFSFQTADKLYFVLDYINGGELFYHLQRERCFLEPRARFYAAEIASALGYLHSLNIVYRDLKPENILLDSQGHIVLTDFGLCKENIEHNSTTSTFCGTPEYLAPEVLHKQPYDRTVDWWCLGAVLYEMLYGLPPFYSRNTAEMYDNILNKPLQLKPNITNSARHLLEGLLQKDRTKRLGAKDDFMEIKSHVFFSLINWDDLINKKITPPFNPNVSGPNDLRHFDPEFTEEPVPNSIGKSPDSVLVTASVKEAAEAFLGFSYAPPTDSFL

How did the “% Activity” value (MELK(h)) turn out when Cc1cc2c(-c3ccc(NC(=O)[C@H](N)CC(C)(C)C)cc3C)ccnc2[nH]1 [Compound F-90, (2R)-2-Amino-4,4-dimethyl-N-[3-methyl-4-(2-methyl-1H-pyrrolo[2,3-b]pyridin-4-yl)phenyl]pentanamide] was run?
The value was 82%.

And the “% Activity” value (PAR-1Bα(h))?
The value was 88%.

And the “% Activity” value (PDHK2(h))?
The value was 87%.

What about the IC50 (PKAα) of the same compound?
Its IC50 is greater than 3 µM.

And the “% Activity” value (CDK13/cyclinK(h))?
Its value is 99%.

And the “% Activity” value (SGK(h))?
The value was 113%.

What about the “% Activity” value (RIPK2(h)) of the same compound?
The value was 97%.

What about the “% Activity” value (Wee1(h)) of the same compound?
Its value is 94%.

What about the “% Activity” value (VRK1(h)) of the same compound?
Its value is 99%.

And the “% Activity” value (IGF-1R(h))?
The value was 98%.

What about the “% Activity” value (NEK1(h)) of the same compound?
The value was 94%.

What about the “% Activity” value (Lck(h)) of the same compound?
Its value is 86%.

What about the “% Activity” value (NIM1(h)) of the same compound?
The value was 112%.

What about the “% Activity” value (MAPK1(h)) of the same compound?
The value was 95%.

What about the “% Activity” value (NEK3(h)) of the same compound?
The value was 110%.

And the “% Activity” value (PI3KC2g(h))?
Its value is 103%.

What about the “% Activity” value (MST1(h)) of the same compound?
Its value is 76%.

What about the “% Activity” value (IKKα(h)) of the same compound?
Its value is 98%.

And the IC50 (ROCK-2)?
The IC50 was greater than 3 µM.

And the “% Activity” value (SAPK3(h))?
The value was 113%.

And the “% Activity” value (TTBK1(h))?
The value was 96%.

What about the “% Activity” value (PKCδ(h)) of the same compound?
The value was 93%.

What about the “% Activity” value (FGFR2(h)) of the same compound?
Its value is 89%.

What about the “% Activity” value (LATS1(h)) of the same compound?
Its value is 90%.

What about the “% Activity” value (PKCγ(h)) of the same compound?
The value was 97%.

What about the “% Activity” value (CaMKI(h)) of the same compound?
Its value is 104%.
